Assay results taken from PubChem BioAssay AID1918949 (Molecular Pharmacology Branch, DTP, NCI, 2023).
pIC50: −log10 of the molar value. Several values for one entry are separate records, joined by “and”; a condition that tells them apart may be missing. Identical values can stand only once.

System: K24384-001-R-PDC complex spheroid viability
Assay: Anticancer human tumor K24384-001-R-PDC patient-derived pancreatic adenocarcinoma cell line growth inhibition
Details: for viability, T/C: stronger effect = lower value
From the text: Multicellular complex tumor spheroid response to LSD1 Inhibitor Iadademstat in combination with a variety of drugs and investigational agents in selected tumor cell lines
The current study was undertaken to assess response to LSD1 inhibitors in combination with standard-of-care drugs and investigational agents in solid tumor complex spheroid models as well as in the K-562 leukemia. Complex spheroids include a stromal component modeled by human endothelial cells (HUVEC) and fibroblasts modeled by human mesenchymal stem cells (MSCs). The concentration ranges selected for each drug and investigational agent were based upon clinically achievable concentrations if the clinical Cmax of the agent was known.
Compounds. The drugs and investigational agents used in this study are listed on Table 1. All of the agents used, including staurosporine (NSC755774) and gemcitabine (NSC613327), were obtained from the Developmental Therapeutics Program, NCI. FDA-approved anticancer drugs are available from the NCI at http://dtp.nci.nih.gov/branches/dscb/oncology_drugset_explanation.html. Drugs and investigational agents were >95% pure by proton nuclear magnetic resonance (NMR) and liquid chromatography/mass spectrometry (LC/MS). Stock solutions were prepared at 400x in DMSO, stored at -70 degrees C, and diluted in fresh medium prior to their use. The final concentration of DMSO in cell culture wells never exceeded 0.25% (v/v). The FDA-approved anticancer drug set is available from the Developmental Therapeutics Program at https://dtp.cancer.gov/organization/dscb/obtaining/available_plates.htm. All drugs and investigational agents were tested over a range starting from a high concentration at or near the clinical Cmax and decreasing in half-log increments. If the clinical Cmax for an agent had not been determined, the highest concentration tested was 10 microM.
Cell Lines. The patient-derived cancer cell (PDC) lines: 292921-168-R-J2-PDC, K24384-001-R-PDC, and 521955-158-R2-J5-PDC pancreatic carcinomas, 556581-035-R-J1 ovarian carcinoma, 324938-238-R-J1-PDC, 855422-203-R-J1-PDC and 883617-216-R-J1-PDC urothelial bladder carcinomas, 743489-274-T-PDC renal cell carcinoma, 138582-R-J1 Merkel cell tumor, K60290-347-R-J1 and K57222-313-R-J1-PDC glioblastomas, 653999-131-R-J2-PDC, LG0703-F948-PDC, and 349418-098-R-PDC non-small cell lung carcinomas, 885512-296-R-J2-PDC, 171881-019-R-J1-PDC breast carcinomas and 186277-243-T-J2-PDC and 233499-124-R-J2-PDC colon carcinomas were obtained from the NCI Patient-Derived Models Repository (PDMR, https://pdmr.cancer.gov). The established cell lines NCI/ADR-RES (RRID:CVCL_14520 and OVCAR-5 (RRID:CVCL_1628) ovarian carcinomas, 786-O (RRID:CVCL_1051) and A498 (RRID:CVCL_A498) renal cell carcinoma, NCI-H211 (ATCC, cat. CRL-5824; RRID:CVCL_1529), NCI-H196 (ATCC, cat. CRL-5823, RRID:CVCL_1509), SW 1271 (ATCC, cat. CRL-2177, RRID:CVCL_1716) and NCI-H1876 (ATCC, cat. CRL-5902, RRID:CVCL_1503) small cell lung carcinomas, MDA-MB-231 (RRID:CVCL_0062) and MDA-MB-468 (RRID:CVCL_0419)breast carcinomas (10-12). Pooled donor human umbilical vein endothelial cells (HUVEC, Lonza, cat. CC-2519) and human mesenchymal stem cells (hMSC, Lonza, cat. PT-2501) were purchased from Lonza (Walkersville, MD).
Cell Culture. All cells were maintained in an incubator at 37 degrees C and 5% CO2 with 95% humidity. The PDC lines were cultured according to standard operating procedures established by the NCI PDMR (https://pdmr.cancer.gov). Briefly all PDCs were thawed and cultured in Matrigel-coated flasks prepared with a working solution of 1X Ham's F-12 nutrient mix, without supplementation (Invitrogen, Waltham, MA, cat. 11765054), 100 U/mL penicillin-streptomycin (Invitrogen, cat. 15140122), and 2.5% Matrigel (Corning Inc., Corning, NY, cat. 354248) for the first three passages. […]

[1] = curve of first compound, second compound 0.1 µM
[2] = curve of first compound, second compound 0.316 µM
[3] = curve of first compound, second compound 1 µM
[4] = curve of first compound, second compound 3.16 µM
[5] = curve of first compound, second compound 10 µM
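Further: spheroids exposed to agents for seven days before luminescence viability reading.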
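Wherever viability, T/C is given: 100% = DMSO vehicle control viability.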

CC1COCCN1c1cc(-c2ccnn2C)c2ccnc(-c3ccn[nH]3)c2n1 (configuration not stated)
viability, T/C (compound 0.00316 µM): 64.7% and 53.9%
viability, T/C (compound 0.01 µM): 56.8% and 55.5%
viability, T/C (compound 0.0316 µM): 47.3% and 37.6%
viability, T/C (compound 0.1 µM): 46.8% and 42.9%
viability, T/C (compound 0.316 µM): 49.4% and 44.7%
viability, T/C (compound 1 µM): 38.1% and 38.2%
pIC50 (curve of compound): 7.45 and 8.07

CC1COCCN1c1cc(C2(S(C)(=N)=O)CC2)nc(-c2ccnc3[nH]ccc23)n1 (configuration not stated) + NC1CC1c1ccc(-c2cccc(O)c2)cc1
pIC50 [1]: 5.81
pIC50 [2]: 5.86
pIC50 [3]: 5.93
pIC50 [4]: 5.88
pIC50 [5]: 6.11
viability, T/C (second compound 0.1 µM, first compound 0.0316 µM): 89.4%
viability, T/C (second compound 0.1 µM, first compound 0.1 µM): 108%
viability, T/C (second compound 0.1 µM, first compound 0.316 µM): 95.3%
viability, T/C (second compound 0.1 µM, first compound 1 µM): 58.8%
viability, T/C (second compound 0.1 µM, first compound 3.16 µM): 33.7%
viability, T/C (second compound 0.1 µM, first compound 10 µM): 38.1%
viability, T/C (second compound 0.316 µM, first compound 0.0316 µM): 85.8%
viability, T/C (second compound 0.316 µM, first compound 0.1 µM): 85.9%
viability, T/C (second compound 0.316 µM, first compound 0.316 µM): 72.3%
viability, T/C (second compound 0.316 µM, first compound 1 µM): 57.7%
viability, T/C (second compound 0.316 µM, first compound 3.16 µM): 34%
viability, T/C (second compound 0.316 µM, first compound 10 µM): 36.4%
viability, T/C (second compound 1 µM, first compound 0.0316 µM): 79.5%
viability, T/C (second compound 1 µM, first compound 0.1 µM): 73.9%
viability, T/C (second compound 1 µM, first compound 0.316 µM): 76.5%
viability, T/C (second compound 1 µM, first compound 1 µM): 53%
viability, T/C (second compound 1 µM, first compound 3.16 µM): 29.1%
viability, T/C (second compound 1 µM, first compound 10 µM): 34.1%
viability, T/C (second compound 3.16 µM, first compound 0.0316 µM): 82.4%
viability, T/C (second compound 3.16 µM, first compound 0.1 µM): 77.4%
viability, T/C (second compound 3.16 µM, first compound 0.316 µM): 73.2%
viability, T/C (second compound 3.16 µM, first compound 1 µM): 56.7%
viability, T/C (second compound 3.16 µM, first compound 3.16 µM): 27.9%
viability, T/C (second compound 3.16 µM, first compound 10 µM): 32%
viability, T/C (second compound 10 µM, first compound 0.0316 µM): 87.7%
viability, T/C (second compound 10 µM, first compound 0.1 µM): 81.5%
viability, T/C (second compound 10 µM, first compound 0.316 µM): 70%
viability, T/C (second compound 10 µM, first compound 1 µM): 45.2%
viability, T/C (second compound 10 µM, first compound 3.16 µM): 29.1%
viability, T/C (second compound 10 µM, first compound 10 µM): 31.1%

Nc1ccn(C2OC(CO)C(O)C2(F)F)c(=O)n1 (configuration not stated) + NC1CC1c1ccc(-c2cccc(O)c2)cc1
pIC50 [1]: 7.55
pIC50 [2]: 7.37
pIC50 [3]: 7.42
pIC50 [4]: 7.34
pIC50 [5]: 7.04
viability, T/C (second compound 0.1 µM, first compound 0.000949 µM): 82.5%
viability, T/C (second compound 0.1 µM, first compound 0.003 µM): 72.9%
viability, T/C (second compound 0.1 µM, first compound 0.00949 µM): 63.4%
viability, T/C (second compound 0.1 µM, first compound 0.03 µM): 48%
viability, T/C (second compound 0.1 µM, first compound 0.0949 µM): 41.9%
viability, T/C (second compound 0.1 µM, first compound 0.3 µM): 37.2%
viability, T/C (second compound 0.316 µM, first compound 0.000949 µM): 87.9%
viability, T/C (second compound 0.316 µM, first compound 0.003 µM): 73.4%
viability, T/C (second compound 0.316 µM, first compound 0.00949 µM): 68%
viability, T/C (second compound 0.316 µM, first compound 0.03 µM): 49.5%
viability, T/C (second compound 0.316 µM, first compound 0.0949 µM): 44.9%
viability, T/C (second compound 0.316 µM, first compound 0.3 µM): 35.8%
viability, T/C (second compound 1 µM, first compound 0.000949 µM): 75%
viability, T/C (second compound 1 µM, first compound 0.003 µM): 84.5%
viability, T/C (second compound 1 µM, first compound 0.00949 µM): 63.6%
viability, T/C (second compound 1 µM, first compound 0.03 µM): 53.2%
viability, T/C (second compound 1 µM, first compound 0.0949 µM): 41.1%
viability, T/C (second compound 1 µM, first compound 0.3 µM): 32%
viability, T/C (second compound 3.16 µM, first compound 0.000949 µM): 98.5%
viability, T/C (second compound 3.16 µM, first compound 0.003 µM): 81.2%
viability, T/C (second compound 3.16 µM, first compound 0.00949 µM): 67.1%
viability, T/C (second compound 3.16 µM, first compound 0.03 µM): 56%
viability, T/C (second compound 3.16 µM, first compound 0.0949 µM): 42.1%
viability, T/C (second compound 3.16 µM, first compound 0.3 µM): 31.5%
viability, T/C (second compound 10 µM, first compound 0.000949 µM): 103%
viability, T/C (second compound 10 µM, first compound 0.003 µM): 99%
viability, T/C (second compound 10 µM, first compound 0.00949 µM): 95.5%
viability, T/C (second compound 10 µM, first compound 0.03 µM): 69.3%
viability, T/C (second compound 10 µM, first compound 0.0949 µM): 51.3%
viability, T/C (second compound 10 µM, first compound 0.3 µM): 40.2%
